Our source for the IC50 and AC50 values is ChEMBL document CHEMBL1201862, “PubChem BioAssay data set” (2004).

Activity calls are given as the source filed them.

A short description of assay [1]: insulin promoter down-regulators in MIN6 cells, imaging, high-content screening, mouse beta cells (AID 1628). The class given is functional.
Assay [2] can be described thus: control 3'UTR Renilla luciferase suppression, dose response, counter-screen for Shn3 inhibitor project, cell-based, Clone20-Shn3RL, cherry-picked (AID 624133). The class given is functional.
The test system of the next assay is INS1. Description: beta cell apoptosis inhibitors, cytokine rescue, dose response, luminescence, retest (AID 449756).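 Also: cell death triggered by IL-1 beta plus TNF-alpha plus IFN-gamma mixture; protective hits raise ATP signal compared with cytokine alone wells.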 The class given is functional, cell-based. The note with it: Rattus norvegicus.
Assay [3] has as its target COUP transcription factor 2 (Homo sapiens, UniProt P24468). Description: Luminescence-based cell-based high throughput dose response assay to identify inhibitors of COUP-TFII (NR2F2). Format: functional.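 Also: HEK293 cells transiently cotransfected with COUP-TFII expression vector and reporter; luciferase reporter luminescence driven by COUP-TFII from the pX2-168 reporter plasmid.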
Assay [4] can be described thus: cytotoxicity in HEK-293T cells, dose response, cytotoxicity control for TCR NF-kB inhibitor project, luminescence, T-cell screen hits (AID 489026).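 Also: cells exposed to compound about 14 hours before the viability readout.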 Format: functional, cell-based.
Assay [5] can be described thus: HepG2 cell cytotoxicity, dose response, cytotoxicity control for Shn3 inhibitor project, CellTiter-Glo, cherry-picked (AID 624134). The class given is functional, cell-based.
Assay [6] can be described thus: Shn3 3'UTR reporter inhibitors, dose response, cell-based, Clone20 osteoblasts, firefly luciferase, cherry-picked (AID 624132).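 Also: firefly luciferase luminescence from reporter carrying the Shn3 3'UTR in osteoblasts.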 The class given is functional.
A short description of assay [7]: cytotoxicity in MIN6 insulinoma cells, dose response, cytotoxicity control, cell-based, mouse insulinoma (AID 2122).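 Also: confirmatory high-throughput counterscreen run to flag cytotoxic compounds; mouse MIN-6 beta cells carrying an insulin promoter eGFP reporter.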 The class given is functional.
A further assay has as its target Paired box protein Pax-8 (Homo sapiens, UniProt Q06710). Nature of the assay: inhibitors of PAX8-driven TPO luciferase reporter, dose response, RMG-I cells, cherry-pick (AID 687027).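 Also: luciferase reporter driven by Pax8 target thyroperoxidase promoter measured by SteadyGlo luminescence.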 The class given is functional, cell-based.
Assay [8] can be described thus: non-specific cell cytotoxicity, dose response, cytotoxicity control for PAX8 inhibitor project, plate reader, dry powder samples (AID 743021). The class given is functional, cell-based.
The nature of assay [9]: IOSE-T80 ovarian epithelial cell cytotoxicity, dose response, cytotoxicity control for PAX8 inhibitor project, plate reader, dry powder samples (AID 743045). Format: functional, cell-based.
Assay [10] is described as follows: inhibitors of PGC1a acetylation in cells, dose response, cell-based, cherry-picked samples (AID 720514).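 Also: potency may reflect raised or lowered acetylation signal.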 The class given is functional.
The nature of assay [11]: NIH:OVCAR-3 ovarian cancer cell cytotoxicity, dose response, PAX8 inhibitor project, plate reader, dry powder samples (AID 743044). The class given is functional, cell-based.
Assay [12] in a line: IGROV1 ovarian cancer cell cytotoxicity, dose response, PAX8 inhibitor project, plate reader, dry powder samples (AID 743043). The class given is functional, cell-based. The note with it: IGROV-1.
For assay [13], the target named is Potassium channel subfamily K member 9 (Homo sapiens, UniProt Q9NPC2). Nature of the assay: TASK3 (KCNK9) channel inhibitors, thallium flux, SAR follow-up, selectivity assay for TASK1 inhibitor project, cell-based, FluxOR thallium flux, concentration-response (AID 652211).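 Also: potency is for inhibitors of the channel.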 Format: functional.
Assay [14] concerns the target Potassium channel subfamily K member 3 (Homo sapiens, UniProt O14649). Nature of the assay: TASK1 (KCNK3) potassium channel inhibitors, SAR follow-up, CHO cells, FluxOR thallium flux (AID 652212). Format: functional.
A short description of assay [15]: HEK293T cell cytotoxicity, dose response, cytotoxicity control, CellTiter-Glo luminescence, dry powder, set 6 (AID 651949). The class given is functional, cell-based. Particulars: HEK293.
Assay [16] can be described thus: Mycobacterium tuberculosis BioA enzyme inhibitor Measured in Biochemical System Using Plate Reader - 2163-02_Inhibitor_Dose_DryPowder_Activity.

Potassium channel subfamily K member 3, sequence (O14649 whole entry): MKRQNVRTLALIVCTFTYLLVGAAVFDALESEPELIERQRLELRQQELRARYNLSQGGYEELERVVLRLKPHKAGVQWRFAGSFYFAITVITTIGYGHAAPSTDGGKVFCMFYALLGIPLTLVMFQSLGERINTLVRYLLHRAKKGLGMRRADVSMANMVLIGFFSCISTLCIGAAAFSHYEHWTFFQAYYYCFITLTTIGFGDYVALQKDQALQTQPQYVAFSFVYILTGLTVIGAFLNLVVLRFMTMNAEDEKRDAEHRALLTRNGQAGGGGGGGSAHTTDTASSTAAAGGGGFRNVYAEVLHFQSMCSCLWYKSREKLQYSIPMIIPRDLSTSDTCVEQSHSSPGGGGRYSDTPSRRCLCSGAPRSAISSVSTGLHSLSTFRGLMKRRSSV
COUP transcription factor 2, sequence (P24468 whole entry): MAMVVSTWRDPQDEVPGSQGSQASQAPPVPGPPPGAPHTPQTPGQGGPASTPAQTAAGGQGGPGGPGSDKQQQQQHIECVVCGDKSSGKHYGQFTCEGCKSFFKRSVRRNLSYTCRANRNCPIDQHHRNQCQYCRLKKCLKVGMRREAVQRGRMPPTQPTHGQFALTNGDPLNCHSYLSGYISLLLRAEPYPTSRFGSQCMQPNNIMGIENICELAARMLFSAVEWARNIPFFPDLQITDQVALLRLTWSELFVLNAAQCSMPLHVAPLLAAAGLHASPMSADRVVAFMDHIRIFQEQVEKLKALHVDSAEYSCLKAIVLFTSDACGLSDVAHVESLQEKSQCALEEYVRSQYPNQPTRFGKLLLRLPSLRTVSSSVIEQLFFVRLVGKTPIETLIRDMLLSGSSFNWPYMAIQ
Paired box protein Pax-8, sequence (Q06710 whole entry): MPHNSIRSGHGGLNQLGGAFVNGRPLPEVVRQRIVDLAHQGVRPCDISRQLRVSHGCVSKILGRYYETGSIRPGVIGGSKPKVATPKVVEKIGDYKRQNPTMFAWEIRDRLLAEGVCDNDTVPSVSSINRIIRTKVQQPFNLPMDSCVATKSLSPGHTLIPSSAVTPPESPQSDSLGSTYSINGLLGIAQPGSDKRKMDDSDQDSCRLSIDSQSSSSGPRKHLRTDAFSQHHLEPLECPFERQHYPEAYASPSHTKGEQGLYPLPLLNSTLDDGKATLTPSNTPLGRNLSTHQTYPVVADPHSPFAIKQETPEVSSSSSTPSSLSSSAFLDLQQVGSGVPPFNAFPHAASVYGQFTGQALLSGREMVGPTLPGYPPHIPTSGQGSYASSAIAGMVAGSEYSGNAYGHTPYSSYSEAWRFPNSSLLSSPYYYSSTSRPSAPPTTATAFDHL
Potassium channel subfamily K member 9, sequence (Q9NPC2 whole entry): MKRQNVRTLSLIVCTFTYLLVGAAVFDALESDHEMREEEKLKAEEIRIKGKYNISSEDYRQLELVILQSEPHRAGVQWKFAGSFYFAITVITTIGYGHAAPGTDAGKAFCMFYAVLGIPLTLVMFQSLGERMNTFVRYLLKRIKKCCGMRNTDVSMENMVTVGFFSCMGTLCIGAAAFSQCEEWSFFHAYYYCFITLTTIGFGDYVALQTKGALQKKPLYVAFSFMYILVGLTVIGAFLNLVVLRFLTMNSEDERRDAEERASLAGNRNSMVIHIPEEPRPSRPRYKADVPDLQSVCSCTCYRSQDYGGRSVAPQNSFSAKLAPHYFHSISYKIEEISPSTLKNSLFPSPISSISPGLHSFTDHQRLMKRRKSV

Take `CCC(O)C1CCN(C(=O)c2cc(COc3ccc4ncccc4c3)on2)CC1` (stereo not drawn): the IC50 in [1] was 0.571 µM (active); in [3], 4.46 µM (active); in assay [4], > 80 µM (inactive); in assay [7] it was 0.294 µM (active). For the same molecule, the AC50 in assay [2] is 10.9 µM (active); with INS1, 3.38 µM (active); in [5], 1.75 µM (active); in assay [6] it was 0.505 µM (active).
For `O=C(Nc1cccc(F)c1)N1C[C@@H]2N[C@H](C1)[C@@H]2c1ccc(-c2ccc(F)cc2)cc1`, the AC50 is 19.5 µM (active) on Paired box protein Pax-8; 65.7 µM (active) in assay [8]; 34.3 µM (active) in assay [9]; 18.5 µM (active) in assay [10]; 17.7 µM (active) in [11]; 22.4 µM (active) in assay [12].
Turning to `COc1c(F)cccc1C(=O)Nc1cccc(NC(=O)c2cccc(C)c2)c1`, the IC50 is 0.37 µM (active) in [13] and 0.013 µM (active) in assay [14].
For `c1ccc(CNCCSc2nnc(-c3ccccc3)o2)cc1`, in assay [15], the AC50 is > 52 µM (inactive).
For the molecule `Cc1cccc(/C=C(\CCC(=O)O)c2nc3ccccc3s2)c1`, in assay [16], the AC50 is 14.5 µM (active).
